Like-named read-outs stand apart in the source and are kept apart here.

Data on 14 compounds can be found in US9096593B2, “Compounds and methods for kinase modulation, and indications therefor” (Plexxikon Inc., priority 2009, dated 2015).

One assay concerns the target BCR-KIT/BaF3 cells (Homo sapiens, UniProt P10721). Briefly: BCR-KIT/BaF3 cell proliferation assay (ATPlite). Type of assay: cell-based. The following applies: read-out: BCR/BaF3 (IC50 μM) Kit. How it is done:
Compounds are assessed in a variety of cell based assays. For example BCR-FMS/BaF3, BCR-KIT/BaF3, M-NFS-60, M-07e, and BAC1.2F5 cell proliferation assays are used to assess inhibitory activity of Fms or Kit and MV-4-11 cell proliferation assay is used to assess inhibitory activity in Flt-3. Reagent and assay conditions are as follows: • BCR-FMS/BaF3 and BCR-KIT/BaF3 cells: • Maintained in RPMI containing 10% FBS, 1% PenStrep, 1% NEAA, and 1% L-Glutamine, supplemented with 1 mg/mL G418 and 5% WEHI-CM (or recombinant murine IL-3). • Confluent cells are split 1:50 to 1:100 every 3-4 days. • M-NFS-60 cells (ATCC #CRL-1838): • Maintained in RPMI containing 10% FBS, 1% Hepes, 1% NaPyruvate, and 0.45% Glucose, supplemented with 62 ng/mL murine M-CSF. • Confluent cells are split 1:20 every 3-4 days. • M-07e cells (DSMZ #ACC 104): • Maintained in IMDM containing 10% FBS, supplemented with either 200 ng/mL human SCF or […] SCF (R&D Systems 255-SC). • Confluent cells are split 1:5 to 1:10 every 3-4 days. • BAC1.2F5 cells: • Maintained in Alpha-MEM containing 10% Newborn Calf Serum (Invitrogen #26010-074) supplemented with 36 ng/mL murine M-CSF. • Confluent cells are split 1:4 every 3-4 days. • MV-4-11 cells: • Maintained in Iscove's Modified Dulbecco's Medium containing 10% FBS. • Confluent cells are split 1:4 every 3-4 days. On day 1, cells are counted, then centrifuged in a conical tube for 5 minutes at 1000 rpm. The supernatant is removed and cells are re-suspended as follows: • BCR-FMS/BaF3 and BCR-KIT/BaF3: resuspend in growth media+1 mg/mL G418 (without WEHI/IL-3) to 2×10^5 cells/mL. • M-NFS-60: resuspend in growth media +62 ng/mL murine M-CSF to 5×10^5 cells/mL. • M-07e: resuspend in growth media +200 ng/mL human SCF to 5×10^5 cells/mL. • BAC1.2F5: resuspend in growth media +36 ng/mL murine M-CSF to 1.4×10^5 cells/mL. • MV-4-11: resuspend in growth media +10% FBS to 5×10^5 cells/mL. The cells are plated (50 μL) in each well of a 96-well dish (Corning 3610) and incubated at 37° C. in 5% CO2 overnight, cells plated to a final concentration of cells as follows: • BCR-FMS/BaF3 and BCR-KIT/BaF3: 10,000 cells per well. • M-NFS-60: 25,000 cells per well. • M-07e: 25,000 cells per well. • BAC1.2F5: 7,000 cells per well. • MV-4-11: 25,000 cells per well. On day 2, compound at a maximum concentration of 5 mM is serially diluted 1:3 for a total of 8 point titration with DMSO as a control. A 1 μL aliquot of each dilution point is added to 249 μL growth media and 50 μL is added to a well containing cells, providing 10 μM compound for the maximum concentration point. The cells are incubated for 3 days at 37° C. in 5% CO2. On day 5, ATPlite 1 step Luminescence Assay System (Perkin Elmer #6016739) is brought to room temperature along with the cell cultures. ATPlite is added to each well as follows: • BCR-FMS/BaF3 and BCR-KIT/BaF3: 25 μL per well. • M-NFS-60: 25 μL per well. • M-07c: 40 μL per well. • BAC1.2F5: 50 μL per well. • MV-4-11: 40 μL per well. The cells are incubated at room temperature for 10 minutes, then luminescence is read on Safire reader. The measured luminescence correlates directly with cell number, such that the reading as a function of compound concentration is used to determine the IC50 value.
In general terms: In ATP-based viability assays light output follows the ATP content of the culture.

The next assay addresses BCR-FMS/BaF3 cells (Homo sapiens, UniProt P07333). Kind of assay: BCR-FMS/BaF3 cell proliferation assay (ATPlite). In kind it is cell-based. How it is done: Compounds are assessed in a variety of cell based assays. For example BCR-FMS/BaF3, BCR-KIT/BaF3, M-NFS-60, M-07e, and BAC1.2F5 cell proliferation assays are used to assess inhibitory activity of Fms or Kit and MV-4-11 cell proliferation assay is used to assess inhibitory activity in Flt-3. […] On day 1, cells are counted, then centrifuged in a conical tube for 5 minutes at 1000 rpm. The supernatant is removed and cells are re-suspended as follows: • BCR-FMS/BaF3 and BCR-KIT/BaF3: resuspend in growth media+1 mg/mL G418 (without WEHI/IL-3) to 2×10^5 cells/mL. • M-NFS-60: resuspend in growth media +62 ng/mL murine M-CSF to 5×10^5 cells/mL. • M-07e: resuspend in growth media +200 ng/mL human SCF to 5×10^5 cells/mL. • BAC1.2F5: resuspend in growth media +36 ng/mL murine M-CSF to 1.4×10^5 cells/mL. • MV-4-11: resuspend in growth media +10% FBS to 5×10^5 cells/mL. […] On day 2, compound at a maximum concentration of 5 mM is serially diluted 1:3 for a total of 8 point titration with DMSO as a control. A 1 μL aliquot of each dilution point is added to 249 μL growth media and 50 μL is added to a well containing cells, providing 10 μM compound for the maximum concentration point. The cells are incubated for 3 days at 37° C. in 5% CO2. […] ATPlite is added to each well as follows: • BCR-FMS/BaF3 and BCR-KIT/BaF3: 25 μL per well. • M-NFS-60: 25 μL per well. • M-07c: 40 μL per well. • BAC1.2F5: 50 μL per well. • MV-4-11: 40 μL per well. The cells are incubated at room temperature for 10 minutes, then luminescence is read on Safire reader. The measured luminescence correlates directly with cell number, such that the reading as a function of compound concentration is used to determine the IC50 value.

[1] abbreviates: BCR-FMS/BaF3 cells; read-out: BCR/BaF3 (IC50 μM) Fms.
[2] abbreviates: Kit IC50/Fms IC50, BCR-KIT/BaF3 vs BCR-FMS/BaF3 cells.
Setting [3] is: read-out: BCR/BaF3 (IC50 μM) Fms; BCR-FMS/BaF3 cells.
Where [4] appears, read: BCR-FMS/BaF3 cells, 3 days; read-out: Cell based (IC50 μM) BCR/BaF3 (Fms).
Setting [5] is: read-out: Cell based (IC50 μM) BCR/BaF3 (Fms); BCR-FMS/BaF3 cells, 3 days.

Sequence of BCR-FMS/BaF3 cells (P07333 20-972 limits assumed, change not shown): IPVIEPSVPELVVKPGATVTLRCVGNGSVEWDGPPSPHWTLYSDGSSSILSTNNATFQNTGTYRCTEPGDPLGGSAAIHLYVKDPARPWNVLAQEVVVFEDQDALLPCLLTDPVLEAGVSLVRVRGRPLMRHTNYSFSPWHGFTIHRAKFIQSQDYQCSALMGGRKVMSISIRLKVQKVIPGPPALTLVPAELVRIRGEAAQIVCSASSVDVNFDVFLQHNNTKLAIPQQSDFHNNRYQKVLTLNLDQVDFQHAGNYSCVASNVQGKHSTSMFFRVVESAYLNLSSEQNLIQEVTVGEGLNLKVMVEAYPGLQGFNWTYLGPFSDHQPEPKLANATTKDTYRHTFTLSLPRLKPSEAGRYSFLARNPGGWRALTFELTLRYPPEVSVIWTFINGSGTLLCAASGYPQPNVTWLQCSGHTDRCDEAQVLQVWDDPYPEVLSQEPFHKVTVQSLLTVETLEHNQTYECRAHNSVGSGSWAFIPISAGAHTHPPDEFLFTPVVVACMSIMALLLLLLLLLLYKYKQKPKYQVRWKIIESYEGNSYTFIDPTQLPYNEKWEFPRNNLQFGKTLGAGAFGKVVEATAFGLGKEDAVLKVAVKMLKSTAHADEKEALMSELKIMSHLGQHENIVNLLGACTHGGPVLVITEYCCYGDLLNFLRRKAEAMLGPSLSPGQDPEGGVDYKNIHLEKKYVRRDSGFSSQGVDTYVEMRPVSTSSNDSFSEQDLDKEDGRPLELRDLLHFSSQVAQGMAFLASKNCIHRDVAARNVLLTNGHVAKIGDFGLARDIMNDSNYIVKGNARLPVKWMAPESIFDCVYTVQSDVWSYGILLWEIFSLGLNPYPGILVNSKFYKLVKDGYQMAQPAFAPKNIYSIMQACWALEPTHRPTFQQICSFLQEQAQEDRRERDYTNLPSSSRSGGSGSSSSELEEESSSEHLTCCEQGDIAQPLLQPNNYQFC
Sequence of BCR-KIT/BaF3 cells (P10721 26-976 limits assumed, change not shown): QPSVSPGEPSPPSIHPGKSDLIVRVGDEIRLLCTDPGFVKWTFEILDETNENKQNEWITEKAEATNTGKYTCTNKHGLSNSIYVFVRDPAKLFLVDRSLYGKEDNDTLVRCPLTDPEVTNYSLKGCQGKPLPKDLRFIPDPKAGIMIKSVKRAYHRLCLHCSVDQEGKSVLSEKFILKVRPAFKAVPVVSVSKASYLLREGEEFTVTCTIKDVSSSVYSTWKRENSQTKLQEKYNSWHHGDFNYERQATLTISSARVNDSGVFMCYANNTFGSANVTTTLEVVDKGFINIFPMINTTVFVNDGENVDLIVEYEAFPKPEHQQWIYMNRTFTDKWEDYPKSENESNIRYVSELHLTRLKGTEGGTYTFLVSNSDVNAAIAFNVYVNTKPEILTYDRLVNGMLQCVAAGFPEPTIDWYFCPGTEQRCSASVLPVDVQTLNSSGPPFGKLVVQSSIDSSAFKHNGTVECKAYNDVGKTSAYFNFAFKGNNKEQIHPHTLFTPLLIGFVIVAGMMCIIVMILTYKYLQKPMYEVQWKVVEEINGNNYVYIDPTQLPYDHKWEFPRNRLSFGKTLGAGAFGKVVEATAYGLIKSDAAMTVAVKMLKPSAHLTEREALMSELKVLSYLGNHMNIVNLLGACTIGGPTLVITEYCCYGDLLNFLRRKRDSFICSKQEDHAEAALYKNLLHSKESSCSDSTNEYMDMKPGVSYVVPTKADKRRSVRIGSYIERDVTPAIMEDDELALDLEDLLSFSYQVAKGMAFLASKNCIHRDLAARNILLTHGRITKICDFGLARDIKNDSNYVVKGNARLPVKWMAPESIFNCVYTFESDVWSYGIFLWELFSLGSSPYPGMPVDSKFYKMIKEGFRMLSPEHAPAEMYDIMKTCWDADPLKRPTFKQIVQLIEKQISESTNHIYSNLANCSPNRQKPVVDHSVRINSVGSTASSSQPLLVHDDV

In the case of `COc1ccc(CNc2ncc(Cc3c[nH]c4ncc(C)cc34)cc2C)cn1` [Compound P-1554, (6-Methoxy-pyridin-3-ylmethyl)-[3-methyl-5-(5-methyl-1H-pyrrolo[2,3-b]pyridin-3-ylmethyl)-pyridin-2-yl]-amine], the IC50 on BCR-KIT/BaF3 cells was greater than 0.1 µM; at BCR-FMS/BaF3 cells (setting [1]), less than 0.1 µM. Moreover, the “BCR/BaF3 selectivity (Kit IC50/Fms IC50)” value on BCR-FMS/BaF3 cells (setting [2]) was less than 20.

Consider `COc1ccc(CNc2ncc(Cc3c[nH]c4ncc(C)cc34)cc2F)cn1` [Compound P-1562, [3-Fluoro-5-(5-methyl-1H-pyrrolo[2,3-b]pyridin-3-ylmethyl)-pyridin-2-yl]-(6-methoxy-pyridin-3-ylmethyl)-amine], for which the figures for the IC50 on BCR-KIT/BaF3 cells and at BCR-FMS/BaF3 cells (setting [3]) were greater than 0.1 µM and less than 0.1 µM, respectively. For the same compound, the “BCR/BaF3 selectivity (Kit IC50/Fms IC50)” value on BCR-FMS/BaF3 cells (setting [2]) is recorded as less than 20.

On to `COc1ccc(CNc2ccc(Cc3c[nH]c4ncc(F)cc34)c(F)n2)cn1` [Compound P-1622, [6-Fluoro-5-(5-fluoro-1H-pyrrolo[2,3-b]pyridin-3-ylmethyl)-pyridin-2-yl]-(6-methoxy-pyridin-3-ylmethyl)-amine], for which the IC50 is greater than 0.1 µM at BCR-KIT/BaF3 cells and less than 0.1 µM at BCR-FMS/BaF3 cells (setting [3]). Besides, on BCR-FMS/BaF3 cells (setting [2]), the “BCR/BaF3 selectivity (Kit IC50/Fms IC50)” value is given as greater than 20.

As to `COc1ncc(F)cc1CNc1ccc(Cc2c[nH]c3ncc(NC(C)=O)cc23)c(F)n1` [Compound P-1669, N-(3-{2-fluoro-6-[(5-fluoro-2-methoxy-pyridin-3-ylmethyl)-amino]-pyridin-3-ylmethyl}-1H-pyrrolo[2,3-b]pyridin-5-yl)-acetamide], the IC50 at BCR-KIT/BaF3 cells was greater than 0.1 µM; at BCR-FMS/BaF3 cells (setting [3]), less than 0.1 µM. For the same compound, on BCR-FMS/BaF3 cells (setting [2]), the “BCR/BaF3 selectivity (Kit IC50/Fms IC50)” value is greater than 20.

With `CS(=O)(=O)Nc1cnc2[nH]cc(Cc3ccc(NCc4ccc(Cl)nc4)nc3F)c2c1` [Compound P-1679, N-(3-{6-[(6-Chloro-pyridin-3-ylmethyl)-amino]-2-fluoro-pyridin-3-ylmethyl}-1H-pyrrolo[2,3-b]pyridin-5-yl)-methanesulfonamide], the IC50 on BCR-KIT/BaF3 cells is greater than 0.1 µM; at BCR-FMS/BaF3 cells (setting [3]) it was less than 0.1 µM. Further, the “BCR/BaF3 selectivity (Kit IC50/Fms IC50)” value at BCR-FMS/BaF3 cells (setting [2]) is listed as greater than 20.

For the compound `Fc1cncc(CNc2ccc(Cc3c[nH]c4ncc(Cl)cc34)c(F)n2)c1` [Compound P-2001, [5-(5-Chloro-1H-pyrrolo[2,3-b]pyridin-3-ylmethyl)-6-fluoro-pyridin-2-yl]-(5-fluoro-pyridin-3-ylmethyl)-amine], the IC50 at BCR-KIT/BaF3 cells is greater than 0.1 µM; on BCR-FMS/BaF3 cells (setting [3]), less than 0.1 µM. Further, on BCR-FMS/BaF3 cells (setting [2]), the “BCR/BaF3 selectivity (Kit IC50/Fms IC50)” value is greater than 20.

As for `Clc1cnc2[nH]cc(Cc3ccc(NCc4ccc(Cl)nc4)nc3)c2c1` [Compound P-2003], the IC50 on BCR-KIT/BaF3 cells, on BCR-FMS/BaF3 cells (setting [4]) and at BCR-FMS/BaF3 cells (setting [1]) was less than 0.1 µM each time. In addition, on BCR-FMS/BaF3 cells (setting [2]), the “BCR/BaF3 selectivity (Kit IC50/Fms IC50)” value is on record as less than 20.

Turning to `Fc1ccc(CNc2ccc(Cc3c[nH]c4ncc(Cl)cc34)cn2)cn1` [Compound P-2004, [5-(5-chloro-1H-pyrrolo[2,3-b]pyridin-3-ylmethyl)-pyridin-2-yl]-(6-fluoro-pyridin-3-ylmethyl)-amine], the IC50 at BCR-KIT/BaF3 cells, at BCR-FMS/BaF3 cells (setting [3]) and on BCR-FMS/BaF3 cells (setting [5]) was less than 0.1 µM in each case. Further, the “BCR/BaF3 selectivity (Kit IC50/Fms IC50)” value on BCR-FMS/BaF3 cells (setting [2]) was less than 20.

For the compound `Fc1ccc(CNc2ncc(Cc3c[nH]c4ncc(Cl)cc34)cn2)cc1F` [Compound P-2008, [5-(5-Chloro-1H-pyrrolo[2,3-b]pyridin-3-ylmethyl)-pyrimidin-2-yl]-(3,4-difluoro-benzyl)-amine], the IC50 at BCR-KIT/BaF3 cells is greater than 0.1 µM; at BCR-FMS/BaF3 cells (setting [1]), less than 0.1 µM. For the same compound, at BCR-FMS/BaF3 cells (setting [2]), the “BCR/BaF3 selectivity (Kit IC50/Fms IC50)” value is recorded as less than 20.

Regarding `Cc1cccc(CNc2ncc(Cc3c[nH]c4ncc(Cl)cc34)cn2)c1` [Compound P-2013, [5-(5-Chloro-1H-pyrrolo[2,3-b]pyridin-3-ylmethyl)-pyrimidin-2-yl]-(3-methyl-benzyl)-amine], the figures for the IC50 on BCR-KIT/BaF3 cells and on BCR-FMS/BaF3 cells (setting [1]) were greater than 0.1 µM and less than 0.1 µM, respectively. Moreover, the “BCR/BaF3 selectivity (Kit IC50/Fms IC50)” value on BCR-FMS/BaF3 cells (setting [2]) is given as less than 20.

With `Cc1cnc2[nH]cc(Cc3ccc(NCc4ccc(C(F)(F)F)nc4)nc3)c2c1` [Compound P-2019, [5-(5-Methyl-1H-pyrrolo[2,3-b]pyridin-3-ylmethyl)-pyridin-2-yl]-(6-trifluoromethyl-pyridin-3-ylmethyl)-amine], the IC50 on BCR-KIT/BaF3 cells, at BCR-FMS/BaF3 cells (setting [3]) and on BCR-FMS/BaF3 cells (setting [5]) was less than 0.1 µM throughout. Besides, at BCR-FMS/BaF3 cells (setting [2]), the “BCR/BaF3 selectivity (Kit IC50/Fms IC50)” value is on record as less than 20.

In the case of `COc1cnc2[nH]cc(Cc3ccc(NCc4cncc(F)c4)nc3F)c2c1` [Compound P-2028, [6-Fluoro-5-(5-methoxy-1H-pyrrolo[2,3-b]pyridin-3-ylmethyl)-pyridin-2-yl]-(5-fluoro-pyridin-3-ylmethyl)-amine], the IC50 on BCR-KIT/BaF3 cells was greater than 0.1 µM; at BCR-FMS/BaF3 cells (setting [3]), less than 0.1 µM. In addition, the “BCR/BaF3 selectivity (Kit IC50/Fms IC50)” value on BCR-FMS/BaF3 cells (setting [2]) is reported as greater than 20.

Take `COc1cnc2[nH]cc(Cc3ccc(NCc4ccccc4Cl)nc3F)c2c1` [Compound P-2034, (2-chloro-benzyl)-[6-fluoro-5-(5-methoxy-1H-pyrrolo[2,3-b]pyridin-3-ylmethyl)-pyridin-2-yl]-amine]: on BCR-FMS/BaF3 cells (setting [4]), the IC50 was less than 0.1 µM.

As to `Fc1nc(NCc2ccc(Cl)cn2)ccc1Cc1c[nH]c2ncccc12` [Compound P-2044, (5-Chloro-pyridin-2-ylmethyl)-[6-fluoro-5-(1H-pyrrolo[2,3-b]pyridin-3-ylmethyl)-pyridin-2-yl]-amine], at BCR-FMS/BaF3 cells (setting [5]), the IC50 was less than 0.1 µM.
